Measured values taken from US7241782B1, “Polymorph V of torasemide” (PLIVA, farmaceutska industrija, dionicko drustvo, priority 2000, dated 2007).

Tests used:
[1] = Stability at milling and pressing under normal storage conditions; format: physicochemical
[2] = Release of the active substance in water (USP 24); format: physicochemical; conditions: for Released torasemide: water, USP 24, 37° C., 50 rpm, 1000 ml
Experimental: This makes the novel polymorph V of torasemide suitable for the preparation of pharmaceutical preparations having immediate or prolonged action. The novel polymorph V of torasemide obtained according to Example 1 of the present invention was subjected to testing the release of the active substance in water at the temperature of 37° C. [table]

What does the source list for `Cc1cccc(Nc2ccncc2S(=O)(=O)NC(=O)NC(C)C)c1` [novel polymorph V of torasemide, N-(1-methylethylaminocarbonyl)-4-(3-methyl-phenylamino)-3-pyridinesulfonamide]?
Stability of the crystal form (no transformation into modifications I, II, III or amorphous) [1]: stable at milling and pressing; Release in comparison with the release profile of known crystalline torasemide modifications ([2]; in water (USP 24), same medium): slower release; Released torasemide ([2]; time 0 min): 0%; Released torasemide ([2]; time 15 min): 11.3%; Released torasemide ([2]; time 30 min): 20.5%; Released torasemide ([2]; time 45 min): 26.0%; Released torasemide ([2]; time 60 min): 30.0%; Released torasemide ([2]; time 90 min): 36.0%; Released torasemide ([2]; time 120 min): 40.7%
